Source: US7081460B2, “Quinazoline and quinazoline-like compounds for the treatment of integrin-mediated disorders” (Ortho-McNeil Pharmaceutical, Inc., priority 2001, dated 2006)

Columns and labels:
GPIIb/IIIa = GPIIb/IIIa (Homo sapiens, UniProt P05106+P08514); assay: In vitro solid phase purified glycoprotein IIb/IIIa binding assay (biotinylated fibrinogen); conditions: RGD-affinity purified GPIIb/IIIa, biotinylated fibrinogen; read-out: GPIIb/IIIa Binding IC50
Protocol: (§1) In vitro Solid Phase Purified αvβ3 Binding Assay The vitronectin/αvβ3 binding assay methods were derived from Mehta et al. (Biochem J. 1998, 330, 861). Human αvβ3 (Chemicon International Inc., Temecula, Calif.), at a concentration of 1 μg/ml dissolved in Tris buffer (20 mM Tris, 1 mM CaCl2, 1 mM MgCl2, 10 μM MnCl2, 150 mM NaCl), was immobilized on Immulon 96 well plates (Dynex Technologies, Chantilly, Va.) overnight at 4° C. Plates were washed and treated with blocking buffer (3% BSA in Tris buffer) for 2 h at 37 C. Plates were then rinsed 2 times in Tris buffer containing 0.3% BSA and 0.2% Tween20 (polyoxyethylenesorbitan monolaurate). Five minutes prior to the addition of 5 nM vitronectin (Sigma, St. Louis, Mo.), compounds of the invention were added to wells in duplicate. Each plate included c-RGDfV as an internal control. Following a 3 hour incubation at 37° C., plates were washed 5 times in assay buffer. An anti-human vitronectin IgG rabbit polyclonal antibody (Calbiochem, San Diego, Calif.) was added (1:2000) and plates were incubated for 1 hour at room temperature. VectaStain ABC peroxidase kit reagents (Vector Laboratories, Burlingame, Calif.) employing a biotin labeled anti-rabbit IgG, were utilized for detection of bound antibody. Plates were read at 490 nm on a Molecular Devices (Sunnyvale, Calif.) microplate reader. […] The plate was covered and incubated overnight at 4° C. The GPIIb/IIIa solution was discarded and 150 μl of 5% BSA was added and incubated at RT for 1–3 h. The plate was washed extensively with modified Tyrodes buffer. Biotinylated fibrinogen (25 μl/well) at 2× final concentration was added to the wells that contain the test compounds (25 μl/well). The plate was covered and incubated at RT for 2–4 h. Twenty minutes prior to incubation completion, one drop of Reagent A (VectaStain ABC Horse Radish Peroxidase kit, Vector Laboratories, Inc.) and one drop Reagent B were added with mixing to 5 mL modified Tyrodes buffer mix and let stand. The ligand solution was discarded and the plate washed (5×200 μl/well) with modified Tyrodes buffer. Vecta Stain HRP-Biotin-Avidin reagent (50 μl/well, as prepared above) was added and incubated at RT for 15 min. The Vecta Stain solution was discarded and the wells washed (5×200 μl/well) with modified Tyrodes buffer. Developing buffer (10 mL of 50 mM citrate/phosphate buffer @ pH 5.3, 6 mg o-phenylenediamine, 6 μl 30% H2O2; 50 μl/well) was added and incubated at rt for 3–5 min, and then 2 N H2SO4 (50 μl/well) was added. The absorbance was read at 490 nm.

Human αvβ3 = target: T1, Human αvβ3 (Homo sapiens, UniProt P05106+P06756); assay: In vitro solid phase purified αvβ3 binding assay (vitronectin/αvβ3); conditions: isolated human αvβ3, 5 nM vitronectin; read-out: αvβ3 Binding IC50
T1 construct: purchased Chemicon International Inc., Temecula, Calif
T1 sequence (P06756 31-889 limits assumed): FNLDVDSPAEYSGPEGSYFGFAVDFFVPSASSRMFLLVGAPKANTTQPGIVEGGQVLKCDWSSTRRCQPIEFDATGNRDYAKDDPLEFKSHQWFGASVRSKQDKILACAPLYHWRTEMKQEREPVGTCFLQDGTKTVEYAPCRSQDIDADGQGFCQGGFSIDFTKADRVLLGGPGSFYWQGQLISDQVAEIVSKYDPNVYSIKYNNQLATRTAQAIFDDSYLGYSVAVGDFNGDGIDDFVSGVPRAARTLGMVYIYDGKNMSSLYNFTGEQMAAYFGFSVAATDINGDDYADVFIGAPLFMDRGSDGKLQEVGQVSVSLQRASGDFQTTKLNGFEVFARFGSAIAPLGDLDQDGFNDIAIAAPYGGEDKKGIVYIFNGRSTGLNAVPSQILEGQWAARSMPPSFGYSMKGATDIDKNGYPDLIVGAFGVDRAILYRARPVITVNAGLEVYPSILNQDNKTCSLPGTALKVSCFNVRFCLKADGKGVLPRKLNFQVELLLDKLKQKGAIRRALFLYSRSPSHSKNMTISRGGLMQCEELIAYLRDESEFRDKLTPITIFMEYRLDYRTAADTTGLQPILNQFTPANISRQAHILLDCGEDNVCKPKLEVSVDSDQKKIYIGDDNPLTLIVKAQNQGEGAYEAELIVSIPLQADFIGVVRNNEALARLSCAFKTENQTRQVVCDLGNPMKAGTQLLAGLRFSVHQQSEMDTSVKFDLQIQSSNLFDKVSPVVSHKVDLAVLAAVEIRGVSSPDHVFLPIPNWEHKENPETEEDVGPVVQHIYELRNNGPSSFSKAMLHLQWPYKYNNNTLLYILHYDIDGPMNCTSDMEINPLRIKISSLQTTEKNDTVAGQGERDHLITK
T1 sequence (P06756 891-1048 partner limits assumed): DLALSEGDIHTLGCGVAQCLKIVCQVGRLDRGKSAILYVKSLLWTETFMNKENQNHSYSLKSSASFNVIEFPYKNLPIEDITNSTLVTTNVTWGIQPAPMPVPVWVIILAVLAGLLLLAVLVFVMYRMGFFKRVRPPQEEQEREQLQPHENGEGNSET
T1 sequence (P05106 27-788): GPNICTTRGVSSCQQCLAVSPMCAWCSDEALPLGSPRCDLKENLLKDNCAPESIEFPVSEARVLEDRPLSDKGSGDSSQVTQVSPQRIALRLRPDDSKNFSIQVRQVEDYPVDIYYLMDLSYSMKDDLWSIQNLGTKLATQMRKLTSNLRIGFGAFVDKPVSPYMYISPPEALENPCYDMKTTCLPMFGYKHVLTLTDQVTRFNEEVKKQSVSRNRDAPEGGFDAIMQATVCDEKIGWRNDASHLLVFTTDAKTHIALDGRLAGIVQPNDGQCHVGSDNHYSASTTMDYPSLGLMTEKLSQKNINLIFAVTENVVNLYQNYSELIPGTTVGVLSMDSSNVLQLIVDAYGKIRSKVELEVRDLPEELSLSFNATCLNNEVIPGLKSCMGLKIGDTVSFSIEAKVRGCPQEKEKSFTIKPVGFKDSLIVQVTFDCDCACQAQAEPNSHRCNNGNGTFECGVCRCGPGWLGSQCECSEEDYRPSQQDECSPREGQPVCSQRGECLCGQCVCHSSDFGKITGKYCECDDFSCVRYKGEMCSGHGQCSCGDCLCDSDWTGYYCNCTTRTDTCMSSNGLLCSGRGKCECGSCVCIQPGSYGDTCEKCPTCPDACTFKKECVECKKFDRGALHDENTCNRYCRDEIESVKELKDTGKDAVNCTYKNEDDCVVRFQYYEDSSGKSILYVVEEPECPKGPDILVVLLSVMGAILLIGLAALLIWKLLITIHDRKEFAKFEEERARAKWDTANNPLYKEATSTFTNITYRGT
Protocol: as §1

GPIIb/IIIa, sequence (P08514 32-887 limits assumed): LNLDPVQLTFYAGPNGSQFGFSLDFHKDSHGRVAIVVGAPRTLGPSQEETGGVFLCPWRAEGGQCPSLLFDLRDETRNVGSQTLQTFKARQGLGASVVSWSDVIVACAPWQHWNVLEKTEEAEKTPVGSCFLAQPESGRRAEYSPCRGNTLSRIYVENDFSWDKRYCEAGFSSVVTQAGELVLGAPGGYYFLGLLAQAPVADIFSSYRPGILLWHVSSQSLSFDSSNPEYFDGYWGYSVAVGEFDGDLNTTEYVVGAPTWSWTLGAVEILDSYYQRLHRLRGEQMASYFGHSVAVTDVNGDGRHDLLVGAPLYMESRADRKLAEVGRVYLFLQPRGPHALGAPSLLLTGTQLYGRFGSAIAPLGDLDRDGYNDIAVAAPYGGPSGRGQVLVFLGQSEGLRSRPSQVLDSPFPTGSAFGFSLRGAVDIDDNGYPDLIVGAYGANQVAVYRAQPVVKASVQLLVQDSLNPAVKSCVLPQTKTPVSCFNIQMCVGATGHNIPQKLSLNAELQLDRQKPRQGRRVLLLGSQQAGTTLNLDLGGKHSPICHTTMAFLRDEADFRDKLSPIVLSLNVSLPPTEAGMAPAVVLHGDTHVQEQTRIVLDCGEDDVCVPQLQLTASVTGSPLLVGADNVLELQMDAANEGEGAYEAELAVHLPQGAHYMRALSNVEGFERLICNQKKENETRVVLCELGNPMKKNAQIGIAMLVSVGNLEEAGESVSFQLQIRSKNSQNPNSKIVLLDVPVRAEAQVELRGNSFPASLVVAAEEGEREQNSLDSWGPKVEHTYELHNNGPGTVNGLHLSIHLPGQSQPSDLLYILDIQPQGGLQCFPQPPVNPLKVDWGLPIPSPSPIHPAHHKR
GPIIb/IIIa, sequence (P08514 891-1039 partner limits assumed): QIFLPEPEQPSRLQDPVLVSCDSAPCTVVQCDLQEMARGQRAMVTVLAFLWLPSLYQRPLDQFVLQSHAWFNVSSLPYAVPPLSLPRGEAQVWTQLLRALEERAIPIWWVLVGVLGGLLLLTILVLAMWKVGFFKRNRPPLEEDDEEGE
GPIIb/IIIa, sequence (P05106 27-788): as the sequence (P05106 27-788) above

Compound | IC50 (GPIIb/IIIa) [nM] | IC50 (Human αvβ3) [nM]
O=C(N[C@@H](Cc1nc2ccc(/C=C/CNC3=NCCC3)cc2c(=O)[nH]1)C(=O)O)OCc1ccccc1 [Compound 67, 6-[(1E)-3-[(3,4-dihydro-2H-pyrrol-5-yl)amino]-1-propenyl]-(αS)-3,4-dihydro-4-oxo-α-[[(phenylmethoxy)carbonyl]amino]-2-quinazolinepropanoic acid] | 580 | 420
6-[(1E)-4-[[(aminoiminomethyl)amino]oxy]-1-butenyl]-(αS)-3,4-dihydro-4-oxo-α-[[(2,3,4,5,6-pentamethylphenyl)sulfonyl]amino]-2-quinazolinepropanoic Acid [Compound 16] | 36 | 268
Cc1coc(NC/C=C/c2ccc3nc(C[C@H](NS(=O)(=O)c4c(C)c(C)c(C)c(C)c4C)C(=O)O)[nH]c(=O)c3c2)n1 [Compound 81, (αS)-3,4-dihydro-6-[(1E)-3-[(4-methyl-2-oxazolyl)amino]-1-propenyl]-4-oxo-α-[[(2,3,4,5,6-pentamethylphenyl)sulfonyl]amino]-2-quinazolinepropanoic acid] | 7100 | > 5000
CN(C)c1cccc2c(S(=O)(=O)N[C@@H](Cc3nc4ccc(/C=C/CNC5=NCCN5)cc4c(=O)[nH]3)C(=O)O)cccc12 [Compound 22, 6-[(1E)-3-[(4,5-dihydro-1H-imidazol-2-yl)amino]-1-propenyl]-α-[[[5-(dimethylamino)-1-naphthalenyl]sulfonyl]amino]-(αS)-3,4-dihydro-4-oxo-2-quinazolinepropanoic acid] | 1200 | > 500
Cc1nn(C)c(Cl)c1S(=O)(=O)N[C@@H](Cc1nc2ccc(/C=C/CNC(=O)NCc3ccccc3)cc2c(=O)[nH]1)C(=O)O [Compound 65, α-[[(5-chloro-1,3-dimethyl-1H-pyrazol-4-yl)sulfonyl]amino]-(αS)-3,4-dihydro-4-oxo-6-[(1E)-3-[[[(phenylmethyl)amino]carbonyl]amino]-1-propenyl]-2-quinazolinepropanoic acid] | 4100 | 160
O=C(O)[C@H](Cc1nc2ccc(/C=C/CNC3=NCCN3)cc2c(=O)[nH]1)NS(=O)(=O)c1c(Cl)cc(Cl)cc1Cl [Compound 21, 6-[(1E)-3-[(4,5-dihydro-1H-imidazol-2-yl)amino]-1-propenyl]-(αS)-3,4-dihydro-4-oxo-α-[[(2,4,6-trichlorophenyl)sulfonyl]amino]-2-quinazolinepropanoic acid] | 1600 | > 50
O=C(NC/C=C/c1ccc2nc(C[C@H](NS(=O)(=O)Cc3ccccc3)C(=O)O)[nH]c(=O)c2c1)NCc1ccccc1 [Compound 70, (αS)-3,4-dihydro-4-oxo-6-[(1E)-3-[[[(phenylmethyl)amino]carbonyl]amino]-1-propenyl]-α-[[(phenylmethyl)sulfonyl]amino]-2-quinazolinepropanoic acid] | 3200 | 550
COc1cccc([C@@H](CC(=O)O)c2nc3ccc(/C=C/CNc4ccccn4)cc3c(=O)[nH]2)c1 [Compound 17, (βR)-3,4-dihydro-β-(3-methoxyphenyl)-4-oxo-6-[(1E)-3-(2-pyridinylamino)-1-propenyl]-2-quinazolinepropanoic Acid] | 18000 | > 50000
O=C(O)[C@H](Cc1nc2ccc(/C=C/CNC3=NCCN3)cc2c(=O)[nH]1)NS(=O)(=O)c1ccc(-c2ccccn2)s1 [Compound 6, 6-[(1E)-3-[(4,5-dihydro-1H-imidazol-2-yl)amino]-1-propenyl]-(αS)-3,4-dihydro-4-oxo-α-[[[5-(2-pyridinyl)-2-thienyl]sulfonyl]amino]-2-quinazolinepropanoic Acid] | 41 | 5.3
COc1ccc(S(=O)(=O)N[C@@H](Cc2nc3ccc(/C=C/CNC(=O)NCc4ccccc4)cc3c(=O)[nH]2)C(=O)O)cc1OC [Compound 54, α-[[(3,4-dimethoxyphenyl)sulfonyl]amino]-(αS)-3,4-dihydro-4-oxo-6-[(1E)-3-[[[(phenylmethyl)amino]carbonyl]amino]-1-propenyl]-2-quinazolinepropanoic acid] | 5000 | 38
Cc1c(C)c(C)c(S(=O)(=O)N[C@@H](Cc2nc3ccc(/C=C/CNC(=O)Nc4ccccc4)cc3c(=O)[nH]2)C(=O)O)c(C)c1C [Compound 13, (αS)-3,4-dihydro-4-oxo-α-[[(2,3,4,5,6-pentamethylphenyl)sulfonyl]amino]-6-[(1E)-3-[[(phenylamino)carbonyl]amino]-1-propenyl]-2-quinazolinepropanoic Acid] | 1700 | 140
Cc1c(C)c(C)c(S(=O)(=O)N[C@@H](Cc2nc3ccc(/C=C/CNC(=O)NCCc4ccccc4)cc3c(=O)[nH]2)C(=O)O)c(C)c1C [Compound 80, (αS)-3,4-dihydro-4-oxo-α-[[(2,3,4,5,6-pentamethylphenyl)sulfonyl]amino]-6-[(1E)-3-[[[(2-phenylethyl)amino]carbonyl]amino]-1-propenyl]-2-quinazolinepropanoic acid] | 2700 | 
Cc1c(C)c(C)c(S(=O)(=O)N[C@@H](Cc2nc3ccc(/C=C/CCNC4=NCCN4)cc3c(=O)[nH]2)C(=O)O)c(C)c1C [Compound 42, 6-[(1E)-4-[(4,5-dihydro-1H-imidazol-2-yl)amino]-1-butenyl]-(αS)-3,4-dihydro-4-oxo-α-[[(2,3,4,5,6-pentamethylphenyl)sulfonyl]amino]-2-quinazolinepropanoic acid] | 60 | 5.4
O=C(O)[C@H](Cc1nc2ccc(/C=C/CNC3=NCCN3)cc2c(=O)[nH]1)NS(=O)(=O)CCc1cccc2ccccc12 [Compound 5, 6-[(1E)-3-[(4,5-dihydro-1H-imidazol-2-yl)amino]-1-propenyl]-(αS)-3,4-dihydro-α-[[[2-(1-naphthalenyl)ethyl]sulfonyl]amino]-4-oxo-2-quinazolinepropanoic Acid] | 670 | 8.6
O=C(N[C@@H](Cc1nc2ccc(/C=C/CNC3=NCCN3)cc2c(=O)[nH]1)C(=O)O)OCc1ccccc1 [Compound 2, 6-[(1E)-3-[(4,5-dihydro-1H-imidazol-2-yl)amino]-1-propenyl]-(αS)-3,4-dihydro-4-oxo-α-[[(phenylmethoxy)carbonyl]amino]-2-quinazolinepropanoic Acid] | 560 | 55
NC/C=C/c1ccc2nc(C[C@H](NC(=O)OCc3ccccc3)C(=O)O)[nH]c(=O)c2c1 [Compound 19, 6-[(1E)-3-amino-1-propenyl]-(αS)-3,4-dihydro-4-oxo-α-[[(phenylmethoxy)carbonyl]amino]-2-quinazolinepropanoic acid] | 450 | > 5000
COc1ccc(S(=O)(=O)N[C@@H](Cc2nc3ccc(/C=C/CNc4ccc(C)cn4)cc3c(=O)[nH]2)C(=O)O)cc1OC [Compound 44, α-[[(3,4-dimethoxyphenyl)sulfonyl]amino]-(αS)-3,4-dihydro-6-[(1E)-3-[(5-methyl-2-pyridinyl)amino]-1-propenyl]-4-oxo-2-quinazolinepropanoic acid] | 790 | 24
CC(C)(C)c1ccc(S(=O)(=O)N[C@@H](Cc2nc3ccc(/C=C/CNc4ccccn4)cc3c(=O)[nH]2)C(=O)O)cc1 [Compound 23, α-[[[4-(1,1-dimethylethyl)phenyl]sulfonyl]amino]-(αS)-3,4-dihydro-4-oxo-6-[(1E)-3-(2-pyridinylamino)-1-propenyl]-2-quinazolinepropanoic acid] | 6400 | 
